According to US20230286958A1, “PLASMA KALLIKREIN INHIBITORS” (Merck Sharp & Dohme LLC, priority 2020, published 2023):
pIC50: −log10 of the molar value.

How the values were obtained:
human Factor XIa = human Factor XIa (Homo sapiens (Human), UniProt P03951); experiment: Factor XIa Assay (fluorogenic substrate GPR-AFC); format: biochemical; conditions: Factor XIa (FXIa)
Description: (§1) The effectiveness of a compound of the present invention as an inhibitor of Coagulation Factor XIa can be determined using a relevant purified serine protease, and an appropriate synthetic substrate. The rate of hydrolysis of the chromogenic or fluorogenic substrate by the relevant serine protease was measured both in the absence and presence of compounds of the present invention. Assays were conducted at room temperature or at 37° C. […] A decrease in the rate of fluorescence change in the presence of inhibitor is indicative of enzyme inhibition. Such methods are known to one skilled in the art. The results of this assay are expressed as the half-maximal inhibitory concentrations (IC50), or the inhibitory constant, Ki.
Compounds were pre-incubated for 30 minutes at 25° C. with human (0.04 nM) Factor XIa in 50 mM HEPES buffer with 150 mM sodium chloride, 5 mM calcium chloride, 0.1% PEG 8000, pH 7.4. […] The % inhibition for each data point was calculated from the data and analyzed using the log (inhibitor) vs. response four parameters equation to determine the half-maximal inhibitory concentrations (IC50). The IC50 were converted to equilibrium inhibitory constants (Ki) using the Cheng-Prusoff equation.

Human plasma kallikrein = Human plasma kallikrein (Homo sapiens (Human), UniProt P03952); experiment: Kallikrein Assay (fluorogenic substrate Acetyl-K-P-R-AFC); format: biochemical; conditions: Plasma Kallikrein (PKal)
Chain of Human plasma kallikrein (P03952 391-638): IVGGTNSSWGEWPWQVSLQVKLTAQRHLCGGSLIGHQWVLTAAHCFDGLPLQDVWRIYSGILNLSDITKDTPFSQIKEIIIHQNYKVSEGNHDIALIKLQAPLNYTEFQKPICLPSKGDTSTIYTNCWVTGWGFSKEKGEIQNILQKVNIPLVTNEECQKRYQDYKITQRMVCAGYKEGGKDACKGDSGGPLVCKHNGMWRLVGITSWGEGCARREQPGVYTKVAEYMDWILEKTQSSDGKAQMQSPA
Chain of Human plasma kallikrein (P03952 20-390 partner): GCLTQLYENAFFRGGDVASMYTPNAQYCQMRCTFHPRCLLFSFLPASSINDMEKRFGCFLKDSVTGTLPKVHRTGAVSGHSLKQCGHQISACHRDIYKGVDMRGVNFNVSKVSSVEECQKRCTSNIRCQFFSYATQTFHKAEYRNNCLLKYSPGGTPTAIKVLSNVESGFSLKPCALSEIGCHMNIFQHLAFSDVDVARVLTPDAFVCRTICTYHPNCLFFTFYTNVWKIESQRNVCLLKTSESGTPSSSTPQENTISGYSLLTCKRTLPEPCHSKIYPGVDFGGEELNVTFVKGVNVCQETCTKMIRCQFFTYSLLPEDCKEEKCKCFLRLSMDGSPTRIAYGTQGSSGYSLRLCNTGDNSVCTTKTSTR
Description: as §1, with “Kallikrein” for “Coagulation Factor XIa”
Kallikrein determinations were made in 50 mM HEPES buffer at pH 7.4 containing 150 mM NaCl, 5 mM CaC12, and 0.1% PEG 8000 (polyethylene glycol; Fisher Scientific). Determinations were made using purified Human plasma kallikrein at a final concentration of 0.5 nM (Enzyme Research Laboratories) and the synthetic substrate, Acetyl-K-P-R-AFC (Sigma # C6608) at a concentration of […].
Times required to achieve equilibration between enzyme and inhibitor were determined in control experiments. […] IC50 was determined by inflection point from a four parameter logistic curve fit. Ki was calculated using the Cheng Prusoff equation, Ki = IC50/(1+([S]/Km)).

Chain of human Factor XIa (P03951 388-625 limits assumed): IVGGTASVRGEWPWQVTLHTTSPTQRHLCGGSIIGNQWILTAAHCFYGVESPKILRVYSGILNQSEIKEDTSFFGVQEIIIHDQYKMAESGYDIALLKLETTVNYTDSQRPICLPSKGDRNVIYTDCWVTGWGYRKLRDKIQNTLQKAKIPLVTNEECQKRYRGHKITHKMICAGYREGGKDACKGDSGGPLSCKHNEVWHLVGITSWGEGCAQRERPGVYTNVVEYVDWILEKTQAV
Chain of human Factor XIa (P03951 19-387 partner limits assumed): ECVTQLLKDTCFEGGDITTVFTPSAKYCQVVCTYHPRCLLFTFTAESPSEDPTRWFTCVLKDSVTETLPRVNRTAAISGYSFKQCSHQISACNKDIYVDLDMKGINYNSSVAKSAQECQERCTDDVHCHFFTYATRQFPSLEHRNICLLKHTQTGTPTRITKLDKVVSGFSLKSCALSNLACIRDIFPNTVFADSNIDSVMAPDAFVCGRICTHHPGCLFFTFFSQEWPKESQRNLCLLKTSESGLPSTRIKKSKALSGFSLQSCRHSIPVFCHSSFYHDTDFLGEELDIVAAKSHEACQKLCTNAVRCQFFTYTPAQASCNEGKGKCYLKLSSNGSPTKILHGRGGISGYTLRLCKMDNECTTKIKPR

Compound	pIC50 (human Factor XIa)	pIC50 (Human plasma kallikrein)
Cc1nc(N2C[C@H]3C[C@H]3C2=O)ncc1Cn1cc(NC(=O)c2nc(-c3c(C(F)F)ccc(Cl)c3F)cnc2CO)cn1 [Example 156, 6-(3-Chloro-6-(difluoromethyl)-2-fluorophenyl)-3-(hydroxymethyl)-N-(1-((4-methyl-2-((1R,5S)-2-oxo-3-azabicyclo[3.1.0]hexan-3-yl)pyrimidin-5-yl)methyl)-1H-pyrazol-4-yl)pyrazine-2-carboxamide]	6.79	9.05
Cc1nc(C(C)n2cc(NC(=O)c3nc(-c4c(C(F)F)ccc(Cl)c4F)cnc3COC(C)(C)C)cn2)cnc1N1C[C@H]2C[C@H]2C1=O (mixture of isomers) [Example 196, 3-(tert-Butoxymethyl)-6-(3-chloro-6-(difluoromethyl)-2-fluorophenyl)-N-(1-((S and R)-1-(6-methyl-5-((1R,5S)-2-oxo-3-azabicyclo[3.1.0]hexan-3-yl)pyrazin-2-yl)ethyl)-1H-pyrazol-4-yl)pyrazine-2-carboxamide]	5.68	9.05
Cc1ncc(-c2c(C(F)F)ccc(Cl)c2F)nc1C(=O)Nc1cnn(C(C)c2cnc(N3C[C@H]4C[C@H]4C3=O)c(Cl)c2)c1 (stereo partly drawn) [Example 92, N-(1-((S)-1-(5-chloro-6-((1R,5S)-2-oxo-3-azabicyclo[3.1.0]hexan-3-yl)pyridin-3-yl)ethyl)-1H-pyrazol-4-yl)-6-(3-chloro-6-(difluoromethyl)-2-fluorophenyl)-3-methylpyrazine-2-carboxamide]	6.24	8.89
COc1ncc(-c2c(OC(F)F)ccc(Cl)c2F)nc1C(=O)Nc1cnn(C(C)c2cnc(N3C[C@H]4C[C@H]4C3=O)c(C)n2)c1 (single isomer, unassigned) [Example 241, 6-(3-Chloro-6-(difluoromethoxy)-2-fluorophenyl)-3-methoxy-N-(1-((S or R)-1-(6-methyl-5-((1R,5S)-2-oxo-3-azabicyclo[3.1.0]hexan-3-yl)pyrazin-2-yl)ethyl)-1H-pyrazol-4-yl)pyrazine-2-carboxamide]	6.42	9.15
Cc1c(C(C)n2cc(NC(=O)c3cncc(-c4c(OC(F)F)ccc(Cl)c4F)n3)cn2)cnc(N2C[C@H]3C[C@H]3C2=O)c1C (single isomer, unassigned) [Example 105, 6-(3-Chloro-6-(difluoromethoxy)-2-fluorophenyl)-N-(1-((R or S)-1-(4,5-dimethyl-6-((1R,5S)-2-oxo-3-azabicyclo[3.1.0]hexan-3-yl)pyridin-3-yl)ethyl)-1H-pyrazol-4-yl)pyrazine-2-carboxamide]	7.00	9.22
Cc1nc(N2C[C@H]3C[C@H]3C2=O)ncc1[C@H](CO)n1cc(NC(=O)c2cncc(-c3c(C(F)F)ccc(Cl)c3F)n2)cn1 [Example 160, 6-(3-Chloro-6-(difluoromethyl)-2-fluorophenyl)-N-(1-((R)-2-hydroxy-1-(4-methyl-2-((1R,5S)-2-oxo-3-azabicyclo[3.1.0]hexan-3-yl)pyrimidin-5-yl)ethyl)-1H-pyrazol-4-yl)pyrazine-2-carboxamide]	< 5.00	6.60
Cc1cc(C(C)n2cc(NC(=O)c3cc(-c4c(C(F)F)ccc(Cl)c4F)c[n+]([O-])c3)cn2)cnc1N1C[C@H]2C[C@H]2C1=O (single isomer, unassigned) [Example 106, 5-(3-Chloro-6-(difluoromethyl)-2-fluorophenyl)-N-(1-((S or R)-1-(5-methyl-6-((1R,5S)-2-oxo-3-azabicyclo[3.1.0]hexan-3-yl)pyridin-3-yl)ethyl)-1H-pyrazol-4-yl)-1-(l1-oxidanyl)-114-pyridine-3-carboxamide]	6.99	8.85
O=C(Nc1cnn(Cc2ccc(N3C[C@H]4C[C@H]4C3=O)cc2)c1)c1cncc(-c2c(C(F)F)ccc(Cl)c2F)n1 [Example 145, 6-(3-Chloro-6-(difluoromethyl)-2-fluorophenyl)-N-(1-(4-((1R,5S)-2-oxo-3-azabicyclo[3.1.0]hexan-3-yl)benzyl)-1H-pyrazol-4-yl)pyrazine-2-carboxamide]	< 5.00	8.62
Cc1ncc(-c2c(OC(F)F)ccc(Cl)c2F)nc1C(=O)Nc1cnn(C(C)c2cnc(N3C[C@H]4C[C@H]4C3=O)c(F)c2C)c1 (single isomer, unassigned) [Example 130, 6-(3-Chloro-6-(difluoromethoxy)-2-fluorophenyl)-N-(1-((R or S)-1-(5-fluoro-4-methyl-6-((1R,5S)-2-oxo-3-azabicyclo[3.1.0]hexan-3-yl)pyridin-3-yl)ethyl)-1H-pyrazol-4-yl)-3-methylpyrazine-2-carboxamide]	6.26	9.10
6-(3-Chloro-2-fluoro-6-(methylsulfonyl)phenyl)-N-(1-((S or R)-1-(4-methyl-2-((1R,SS)-2-oxo-3-azabicyclo[3.1.0]hexan-3-yl)pyrimidin-5-yl)ethyl)- 1H-pyrazol-4-yl)pyrazine-2-carboxamide [Example 86]	< 5.00	7.44

Second part, the compound after the results:

pIC50 (human Factor XIa)	pIC50 (Human plasma kallikrein)	Compound
6.41	8.68	Cc1cc(C(C)n2cc(NC(=O)c3cncc(-c4c(C(F)F)ccc(Cl)c4F)n3)cn2)cnc1N1C[C@H]2C[C@H]2C1=O (single isomer, unassigned) [Example 67, 6-(3-Chloro-6-(difluoromethyl)-2-fluorophenyl)-N-(1-((R or S)-1-(5-methyl-6-((1R,5S)-2-oxo-3-azabicyclo[3.1.0]hexan-3-yl)pyridin-3-yl)ethyl)-1H-pyrazol-4-yl)pyrazine-2-carboxamide]
5.36	7.72	O=C(Nc1cnn(Cc2cnc(N3C[C@H]4C[C@H]4C3=O)nc2)c1)c1nc(-c2c(C(F)F)ccc(Cl)c2F)cnc1COC1CC1 [Example 116, 6-(3-Chloro-6-(difluoromethyl)-2-fluorophenyl)-3-(cyclopropoxymethyl)-N-(1-((2-((1R,5S)-2-oxo-3-azabicyclo[3.1.0]hexan-3-yl)pyrimidin-5-yl)methyl)-1H-pyrazol-4-yl)pyrazine-2-carboxamide]
< 5.00	6.75	Cc1nc(N2C[C@H]3C[C@H]3C2=O)c(F)cc1C(C)n1cc(NC(=O)c2cncc(-c3c(C(F)F)ccc(Cl)c3F)n2)cn1 (stereo partly shown) [Example 150, 6-(3-Chloro-6-(difluoromethyl)-2-fluorophenyl)-N-(1-(1-(5-fluoro-2-methyl-6-((1R.5S)-2-oxo-3-azabicyclo[3.1.0]hexan-3-yl)pyridin-3-yl)ethyl)-1H-pyrazol-4-yl)pyrazine-2-carboxamide]
6.35	8.92	COCc1ncc(-c2c(C(F)F)ccc(Cl)c2F)nc1C(=O)Nc1cnn(C(C)c2cnc(N3C[C@H]4C[C@H]4C3=O)c(C)n2)c1 (single isomer, unassigned) [Example 125, 6-(3-Chloro-6-(difluoromethyl)-2-fluorophenyl)-3-(methoxymethyl)-N-(1-((S or R)-1-(6-methyl-5-((1R,5S)-2-oxo-3-azabicyclo[3.1.0]hexan-3-yl)pyrazin-2-yl)ethyl)-1H-pyrazol-4-yl)pyrazine-2-carboxamide]
< 5.00	8.89	Cc1cc(N2C[C@H]3C[C@H]3C2=O)ccc1C(C)n1cc(NC(=O)c2nc(-c3c(C(F)F)ccc(Cl)c3F)cnc2C)cn1 (single isomer, unassigned) [Example 97, 6-(3-Chloro-6-(difluoromethyl)-2-fluorophenyl)-3-methyl-N-(1-((S or R)-1-(2-methyl-4-((1R,5S)-2-oxo-3-azabicyclo[3.1.0]hexan-3-yl)phenyl)ethyl)-1H-pyrazol-4-yl)pyrazine-2-carboxamide]
6.26	9.52	COc1cc(C(C)n2cc(NC(=O)c3nc(-c4c(C(F)F)ccc(Cl)c4F)cnc3C)cn2)cnc1N1C[C@H]2C[C@H]2C1=O (single isomer, unassigned) [Example 219, 6-(3-Chloro-6-(difluoromethyl)-2-fluorophenyl)-N-(1-((R or S)-1-(5-methoxy-6-((1R,5S)-2-oxo-3-azabicyclo[3.1.0]hexan-3-yl)pyridin-3-yl)ethyl)-1H-pyrazol-4-yl)-3-methylpyrazine-2-carboxamide]
< 5.00	8.57	CC(c1cnc(N2C[C@H]3C[C@H]3C2=O)c(C(F)F)c1)n1cc(NC(=O)c2cncc(-c3c(C(F)F)ccc(Cl)c3F)n2)cn1 (single isomer, unassigned) [Example 78, 6-(3-Chloro-6-(difluoromethyl)-2-fluorophenyl)-N-(1-((R or S)-1-(5-(difluoromethyl)-6-((1R,5S)-2-oxo-3-azabicyclo[3.1.0]hexan-3-yl)pyridin-3-yl)ethyl)-1H-pyrazol-4-yl)pyrazine-2-carboxamide]
